# According to US20240101972A1, “METHODS OF […]-[…] PRODUCTION” (priority 2021, published 2024):
# Like-named read-outs stand apart in the source and are kept apart here.
# Legend:
# [1] = system: FKBP degron tagged Rep proteins; assay: AAV titer (qPCR) with FKBP degron tagged Rep; type: cell-based, human
# Experimental: (§1) PEI pro transfection reagent (Polyplus), OptiMEM (Gibco) were used. […] These cell pellets were kept at −80 freezer.
# (§2) Frozen harvested cells were thawed and sonicated. […] Then DNaseI treatment was performed for 15 minutes.
# (§3) As depicted in FIGS. 12A-12D “RHM4-1” and “RHM4-1v2” are the plasmids that express both Rep proteins with no degrons and RHM4-1 Cap. In contrast, “p40Cap plasmid” only expresses RHM4-1 Capsid, while “pAAV2 Rep plasmid” expresses Rep proteins from AAV2. The ITR plasmid used in these studies has Gaussia Luciferase as transgene.
# [2] = system: Rep with C-terminal degron under the control of TRE3G promoter; assay: AAV titer (qPCR) of Rep with C-terminal degron under TRE3G promoter control; type: cell-based
# Experimental: as §1, §2
# (§4) In this study a Tet response element containing promoter (TRE3G) is cloned in front of the Rep gene as shown at FIG. 18A. This promoter can be activated in the presence of Tet proteins and doxycycline induction. Rep with C-terminal Degron under Tet Response Element promoter control is shown to be functional for AAV production regulation. Large Rep is under the control of Tet promoter and small Rep expression is provided by p19 promoter (Samples 1-5). […] Shield1 can upregulate small Rep expression (Sample 1 vs Sample 2) and large Rep expression (Sample 3 vs Sample 4). A separate plasmid is used for supplying Tet-On 3G transactivator protein where transactivator protein expression is under the control of ubiquitous CMV promoter (Samples 1-4). The amino acid sequence of the transactivator protein is: […]
# [3] = system: ecDHFR degron tagged Rep proteins
# Experimental: Expi293 cells were seeded 1.4E6 viable cells/mL in Expi293 media the day before transfection. Transfection was performed when the viable cells were between 2E6-3E6 cells/mL. PEI pro transfection reagent (Polyplus), OptiMEM (Gibco) were used. PEI:DNA ratio was 2 and 0.6 μg DNA per million cells was used. Triple transfections were performed with RHM4-1 Rep Cap, Helper and Gaussia luciferase plasmids. Split Rep and Cap plasmids were used in a ratio of 1:4 (Rep:Cap). In some cases split Rep Cap plasmids and TIR1 or CMV-Tet were used in a ratio of 1:3:1 (Rep:Cap:TIR1 or CMV-Tet). 1.5 mM SAHA was added after the addition of DNA-PEI complexes. In some cases next day Shield1 or TMP or Auxin and/or Doxycycline was added. For Doxycycline treated samples another treatment of Dox was performed 24 hr later than first treatment. Cells harvested at 4,8,24 hr post-treatment and 44 hr or 68 hr or 72 hr post-transfection; centrifuged and washed with cold PBS. These cell pellets were kept at −80 freezer.
# Cell pellets were lysed with RIPA buffer (Pierce) including protease and phosphatase inhibitors and EDTA on ice for 30 minutes. Lysates were centrifuged max speed for 15 minutes and supernatant was transferred to a new Eppendorf tube and used for Western. Protein concentrations were measured with BCA kit (Pierce). 30 lag protein per lane loaded for SDS-PAGE gels. These gels were transferred to either PVDF or Nitrocellulose membrane. Membranes were blocked with blocking buffer (Li-Cor) for 30 minutes at room temperature. Anti-AAV Rep clone 303.9 (ARP, cat #03-61069) purified mouse monoclonal antibody was diluted 500 times in either blocking buffer (Li-Cor) or antibody diluent (Li-Cor). Membranes were incubated overnight in cold room either rocking or non-rocking. Next day membranes were washed 3 times 10 minutes each with 1×TBST buffer (Invitrogen). Goat anti-mouse Alexa Flour 680 secondary antibody was diluted 1000 times in either blocking buffer (Li-Cor) or antibody diluent (Li-Cor). Membranes were incubated at room temperature rocking for 45 minutes. […]
# [4] = system: ecDHFR degron tagged Rep proteins; remark: listed apart in the source
# Experimental: Expi293 cells were seeded 1.4E6 viable cells/mL in Expi293 media the day before transfection. Transfection was performed when the viable cells were between 2E6-3E6 cells/mL. PEI pro transfection reagent (Polyplus), OptiMEM (Gibco) were used. PEI:DNA ratio was 2 and 0.6 μg DNA per million cells was used. Triple transfections were performed with RHM4-1 Rep Cap, Helper and Gaussia luciferase plasmids. Split Rep and Cap plasmids were used in a ratio of 1:4 (Rep:Cap). In some cases split Rep Cap plasmids and TIR1 or CMV-Tet were used in a ratio of 1:3:1 (Rep:Cap:TIR1 or CMV-Tet). 1.5 mM SAHA was added after the addition of DNA-PEI complexes. In some cases next day Shield1 or TMP or Auxin and/or Doxycycline was added. For Doxycycline treated samples another treatment of Dox was performed 24 hr later than first treatment. Cells harvested at 4,8,24 hr post-treatment and 44 hr or 68 hr or 72 hr post-transfection; centrifuged and washed with cold PBS. These cell pellets were kept at −80 freezer. 1 mL of cells harvested 44 hr or 68 hr or 72 hr post-transfection for qPCR.
# Frozen harvested cells were thawed and sonicated. 300 μL sonicated cells were treated with Benzonase for 1 hour at 37° C. incubator on a rotator/shaker. Then DNaseI treatment was performed for 15 minutes. Reaction was stopped with stop reagent (0.2% SDS/5 mM EDTA/0.2M NaCl), heated at 95° C. for 10 minutes and centrifuged. […]
# [5] = system: C-terminal Auxin Inducible Degron containing Rep; assay: AAV titer (qPCR) with Auxin Inducible Degron tagged Rep; type: cell-based; details: auxin and TIR1 all present (Sample 4), FIG. 14B
# Experimental: as §1, §2
# [6] = system: Rep with C-terminal FKBP degron; assay: rAAV production from Rep-degron constructs, read out by Huh7 transduction and luciferase; type: cell-based, human
# From the text: Various constructs were designed for the development of mechanism for controllable Rep accumulation and higher rAAV production. Rep transgene was tagged at N-terminus or C-terminus with a destabilization domain (degron) to confer instability and target the translated Rep protein product to proteasome for degradation. The Rep protein degradation can be reversed by addition of the Shield1 ligand. The degron was modified from a human gene encoding FK506-binding protein 12 (“FKBP12”). It was previously shown that F36V modifications of the protein improves its specificity to Shield1 over FK506 (Clackson et al, PNAS 1998). […] The amino acid sequence of the degron that was used in the present example, referred to herein as “FKBP”, having a F36V and an L107P mutation, was:
# Production of rAAV: Recombinant AAV were produced by transfection of human embryonic kidney (HEK293) cells grown in 6-well plates. The cells at 70-90% confluency were transfected with 3 μg of total DNA using jetOPTIMUS® DNA (PolyPlus)transfection reagent. The positive control rAAV produced with LK03 Rep/Cap plasmid were produced via triple transfection method. The plasmids were added in 1:1:1 ratio (1 helper: 1 ITR plasmid: 1 rep/cap plasmids). […]
# Transduction of cells: Huh7 cells were transduced with equivalent volume of cell lysate or the cell media containing the AAV vectors. […] Transduction efficiency was assessed in biological duplicates or triplicates. Culture media was replaced the following day, and samples were analyzed for transgene expression 48-72 hours after transduction. For detection of Luciferase expression, Huh7 cells were lysed in passive lysis buffer (Promega) and each biological sample was divided and plated to four wells of 96-well luminescence assay plate. Renilla Luciferase levels were determined using the Renilla Luciferase Assay Kit (Promega) and analyzed in a microplate luminometer (Spectramax) fitted with injectors.
# Shield1 was added to selected wells (FIG. 2). […] The Huh7 cells were then lysed and luciferase activity was measured for the detection of transgene activity.
# [7] = system: FKBP degron tagged Rep proteins; assay: Western blot of FKBP degron tagged Rep proteins; type: cell-based, human
# Experimental: as §1
# (§5) Protein concentrations were measured with BCA kit (Pierce). […] Membranes were scanned with Odyssey (Li-Cor).
# as §3
# [8] = molecular target: T1, Rep with C-terminal degron under the control of TRE3G promoter (Homo sapiens, UniProt P62942, F37V); assay: Western blot of Rep with C-terminal degron under TRE3G promoter control; type: cell-based
# T1 construct: AAV Rep protein (fusion partner); expressed in transfected cells; host or cells: Expi293
# T1 sequence (P62942 other isoform, or with tags, fused parts or gaps F37V): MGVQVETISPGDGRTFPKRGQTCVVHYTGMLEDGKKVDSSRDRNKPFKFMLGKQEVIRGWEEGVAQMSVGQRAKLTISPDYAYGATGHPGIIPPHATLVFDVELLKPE
# Experimental: as §1, §5, §4
# [9] = Rep constructs with C-terminal tagged degron, FIG. 15
structure (smiles),measurement,setting,value
CC[C@H](C(=O)N1CCCC[C@H]1C(=O)O[C@H](CCc1ccc(OC)c(OC)c1)c1ccccc1OCC(=O)NCCCCCCOc1cccc2c1C(=O)N(C1CCC(=O)NC1=O)C2=O)c1cc(OC)c(OC)c(OC)c1 (some centres unmarked) [dTag13],basal level of the AAV production,[1]; [9],did not decrease
"C[C@H]1c2cccc(O)c2C(=O)C2=C(O)[C@]3(O)C(=O)C(C(N)=O)=C(O)[C@@H](N(C)C)[C@@H]3[C@@H](O)[C@@H]21 [Doxycycline, doxycycline]",increase of AAV production from the basal levels,"[2]; Doxycycline induction, FIG. 16B",~29 times
"COc1cc(Cc2cnc(N)nc2N)cc(OC)c1OC [TMP, Trimethoprim]",Small and large Rep expression,"[3]; C-ecDegron Rep, 5 μM TMP, FIG. 13B",more
same,Small and large Rep expression,"[3]; C-terminal tagged ecDHFR degron, Samples 7 and 8, FIG. 14A",more
same,large Rep expression,"[3]; N-ecDegron Rep, 5 μM TMP, 24 hour time point, FIG. 13A",higher
same,AAV titer,"[4]; C-terminal ecDHFR degron constructs, FIG. 13C",increases
same,AAV production,"[4]; ecDHFR degron tagged Reps, Sample 8 vs Sample 7 (undetectable without TMP), FIG. 14B",can produce AAV
O=C(O)Cc1c[nH]c2ccccc12 [auxin],AAV production,[5],undetectable
CC[C@H](C(=O)N1CCCC[C@H]1C(=O)O[C@H](CCc1ccc(OC)c(OC)c1)c1cccc(OCCN2CCOCC2)c1)c1cc(OC)c(OC)c(OC)c1 [Shield1],rAAV production,"[6]; Rep with C-terminally linked degron in the presence of both Cap and Shield1, FIG. 6",significantly increased
same,rAAV production and transduction of the target cells,"[6]; Shield1 addition, Rep-only plasmid C-terminal degron, HEK293, FIG. 4",rescued
same,transduction efficiency,"[6]; of the wt Rep/Cap plasmid, Rep-only plasmid C-terminal degron with Shield1, FIG. 4",15-20%
same,Small and large Rep expression,"[7]; C-degron Rep, 4, 8, 24 hour after Shield1 vs untreated, FIG. 12B",higher
same,large Rep expression,"[7]; N-degron Rep, 4, 8, 24 hours after Shield1 vs untreated, FIG. 12A",increases
same,AAV titer,"[1]; N- and C-terminal degron constructs vs untreated controls, FIG. 12C",increases AAV titer
same,AAV production at different doses,[1]; [9],more effective at 500 nM concentration
same,small Rep expression,"[8]; Sample 1 vs Sample 2, FIG. 16A",upregulate
same,large Rep expression,"[8]; Sample 3 vs Sample 4 (with doxycycline), FIG. 16A",upregulate
same,Large and small Rep expression,"[8]; Samples 2, 4, 6, 8 vs 1, 3, 5, 7, FIG. 17A",increased
same,large Rep expression,"[8]; Shield1 added on top of doxycycline, Samples 4 and 8, FIG. 18B",increased further
same,AAV titer,"[2]; codon-modified Rep and small Rep under TRE3G and degron control, treated with Shield1 and Dox together, FIG. 20B",higher
